According to ChEMBL document CHEMBL4418494, “Small molecule inhibitors of AGBL2” (2015):
Calls of active or inactive are those of the source. The rule behind the calls is not given here.

Molecular target: T1, Cytosolic carboxypeptidase 2 (Homo sapiens) (UniProt Q5U5Z8)
T1 sequence (whole entry): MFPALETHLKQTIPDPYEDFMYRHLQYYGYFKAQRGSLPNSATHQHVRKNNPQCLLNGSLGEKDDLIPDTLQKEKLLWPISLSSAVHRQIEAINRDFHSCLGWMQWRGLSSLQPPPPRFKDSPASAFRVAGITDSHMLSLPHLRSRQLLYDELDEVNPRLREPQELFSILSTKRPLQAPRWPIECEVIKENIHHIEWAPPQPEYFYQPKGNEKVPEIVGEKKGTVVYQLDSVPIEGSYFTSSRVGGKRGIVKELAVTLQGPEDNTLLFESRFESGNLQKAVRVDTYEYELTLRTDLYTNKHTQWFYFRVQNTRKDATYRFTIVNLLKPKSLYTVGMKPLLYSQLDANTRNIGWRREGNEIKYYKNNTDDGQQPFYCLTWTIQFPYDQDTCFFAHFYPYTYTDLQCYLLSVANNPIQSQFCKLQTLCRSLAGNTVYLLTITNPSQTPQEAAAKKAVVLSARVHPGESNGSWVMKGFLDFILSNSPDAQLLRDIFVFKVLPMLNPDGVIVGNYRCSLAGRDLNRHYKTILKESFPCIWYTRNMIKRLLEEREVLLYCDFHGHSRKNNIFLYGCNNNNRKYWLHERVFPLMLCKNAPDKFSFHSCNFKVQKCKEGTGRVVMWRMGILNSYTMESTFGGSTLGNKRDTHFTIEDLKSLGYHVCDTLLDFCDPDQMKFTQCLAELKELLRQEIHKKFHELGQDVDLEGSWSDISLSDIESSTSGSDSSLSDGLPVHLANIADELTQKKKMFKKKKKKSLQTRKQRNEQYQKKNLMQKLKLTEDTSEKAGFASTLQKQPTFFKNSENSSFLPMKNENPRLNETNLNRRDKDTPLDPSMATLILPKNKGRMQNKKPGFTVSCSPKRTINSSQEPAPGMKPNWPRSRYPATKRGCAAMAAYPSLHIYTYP
Assay: Inhibition of AGBL2 (unknown origin) expressed in HEK293 stably expressing TIG1 assessed as reduction in de-tyrosinated to tyrosinated ratio of alpha-tubulin at 1 uM incubated for 2 hrs by Western blotting analysis relative to control
Format: cell-based

Question: With Cc1cc(F)cnc1CC(=O)O as the compound, how does the “inhibition (active/inactive call)” value read?
Answer: Active

Question: For CC(C)c1ccc(Sc2ccc(F)cc2CC(=O)O)cc1, which “inhibition (active/inactive call)” value is on record?
Answer: Active

Question: Which “inhibition (active/inactive call)” value does the source give for Cc1cc(C(F)(F)F)cnc1CC(=O)O here?
Answer: Active

Question: For O=C(O)Cc1cccc(C(=O)Nc2ccc3c(c2)OCO3)c1, which “inhibition (active/inactive call)” value is on record?
Answer: Active
